For the first test, the target named is T1, chimeric human H3 receptor (Homo sapiens, UniProt Q9Y5N1).
T1 construct: made in house; host or cells: Sf9 insect cells (baculovirus); P2 membrane preparation
T1 sequence (Q9Y5N1 with tags, fused parts or gaps): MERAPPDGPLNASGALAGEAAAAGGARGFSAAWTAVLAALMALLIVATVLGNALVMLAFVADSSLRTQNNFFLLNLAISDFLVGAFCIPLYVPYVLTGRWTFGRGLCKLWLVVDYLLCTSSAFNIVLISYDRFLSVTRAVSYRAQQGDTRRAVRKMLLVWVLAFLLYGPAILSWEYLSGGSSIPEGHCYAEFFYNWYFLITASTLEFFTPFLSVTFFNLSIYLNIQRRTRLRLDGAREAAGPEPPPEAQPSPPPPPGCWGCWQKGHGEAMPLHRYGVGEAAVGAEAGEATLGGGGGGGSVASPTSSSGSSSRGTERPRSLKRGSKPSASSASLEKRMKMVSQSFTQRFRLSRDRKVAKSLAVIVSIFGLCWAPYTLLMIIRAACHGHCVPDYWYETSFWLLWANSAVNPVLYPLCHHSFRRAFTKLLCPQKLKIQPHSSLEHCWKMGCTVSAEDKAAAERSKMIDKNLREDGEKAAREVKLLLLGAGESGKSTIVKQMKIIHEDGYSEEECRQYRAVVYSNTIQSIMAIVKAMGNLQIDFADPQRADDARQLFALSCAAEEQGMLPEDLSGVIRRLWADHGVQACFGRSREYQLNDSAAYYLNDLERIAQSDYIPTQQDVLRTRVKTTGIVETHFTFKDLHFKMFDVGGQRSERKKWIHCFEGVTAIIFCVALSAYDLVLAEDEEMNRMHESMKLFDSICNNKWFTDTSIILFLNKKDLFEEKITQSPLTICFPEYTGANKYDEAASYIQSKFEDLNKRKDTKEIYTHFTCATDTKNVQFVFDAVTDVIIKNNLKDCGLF
The test is described as follows: Chimeric human H3 receptor GTP binding assay (agonist-stimulated GTP-gamma35S binding, Example 7). Format: biochemical. The conditions noted are these: Table I; P2 membranes of Sf9 cells, 1 μM histamine as agonist, Ki from IC50 by Cheng-Prusoff. The text has this:
This Example illustrates a representative assay for evaluating agonist-stimulated GTP-gamma^35S binding (“GTP binding”) activity. […] This agonist-stimulated GTP binding activity can also be used to detect partial agonism mediated by antagonist compounds. A compound analyzed in this assay is referred to herein as a “test compound.”
Four independent baculoviral stocks (one directing the expression of the chimeric human H3 receptor and three directing the expression of each of the three subunits of a heterotrimeric G-protein) are used to infect a culture of Sf9 cells as described above. P2 membranes are prepared as described above, and agonist-stimulated GTP binding on the P2 membranes is assessed using histamine (Sigma Chemical Co., St. Louis, Mo.) as agonist in order to ascertain that the receptor/G-protein-alpha-beta-gamma combination(s) yield a functional response as measured by GTP binding. P2 membranes are resuspended by Dounce homogenization (tight pestle) in GTP binding assay buffer (50 mM Tris pH 7.4, 120 mM NaCl, 5 mM MgCl2, 2 mM EGTA, 1 mg/ml BSA, 0.2 mg/ml bacitracin, 0.02 mg/ml aprotinin, 0.01 mg/ml saponin, 10 μM GDP) and added to assay tubes at a concentration of 35 μg protein/reaction tube. After adding increasing doses of histamine at concentrations ranging from 10^−12 M to 10^−5 M, reactions are initiated by the addition of […] GTP-gamma^35S (PERKIN ELMER; Boston, Mass.) with a final assay volume of 0.20 ml. In competition experiments, non-radiolabeled test compounds are added to separate reactions at concentrations ranging from 10^−10 M to 10^−6 M along with 1 μM histamine to yield a final volume of 0.20 ml.
Neutral antagonists are antagonists that are substantially free of inherent agonist activity, and include those test compounds that reduce the histamine-stimulated GTP binding activity towards, but not below, baseline levels. In contrast, in the absence of added histamine, inverse agonists reduce the GTP binding activity of the receptor-containing membranes below baseline.
After a 60-min incubation at room temperature, reactions are terminated by vacuum filtration over WHATMAN GF/C filters (pre-soaked in wash buffer, 0.1% BSA) followed by washing with ice-cold wash buffer (50 mM Tris pH 7.4, 120 mM NaCl). The amount of receptor-bound (and thereby membrane-bound) GTP-gamma^35S is determined by measuring the filter-bound radioactivity, preferably by liquid scintillation spectrometry of the washed filters. Non-specific binding is determined in parallel assays including 10 μM unlabeled GTP-gammaS and typically represents less than 5 percent of total binding. Data is expressed as percent above basal (baseline). The results of GTP binding experiments are analyzed using SIGMAPLOT software (SPSS Inc., Chicago, Ill.). IC50 values are calculated by non-linear regression analysis of dose-response curves using Kaleidograph (Synergy Software, Reading, Pa.).
Alternatively the data is analyzed as follows. First, the average bound radioactivity from negative control wells (no agonist) is subtracted from the bound radioactivity detected for each of the other experimental wells. Second, average bound radioactivity is calculated for the positive control wells (agonist wells). Then, percent inhibition for each compound tested is calculated using the equation:
Calculated IC50 values are converted to K1 values by the Cheng-Prusoff correction (Cheng and Prusoff (1973) Biochem. Pharmacol. 22(23):3099-3108). Accordingly, the following equation: Ki=IC50/(1+[L]/EC50) is used, where [L] is the histamine concentration in the GTP binding assay, and EC50 is the concentration of histamine producing a 50% response, as determined by a dose-response analysis using concentrations of histamine ranging from 10^−10 M to 10^−6M. […]
`COc1ncnc2c1CCN(CC(=O)N1CCN(C3CCC3)CC1)CC2` [Compound 78, 7-[2-(4-cyclobutylpiperazin-1-yl)-2-oxoethyl]-4-methoxy-6,7,8,9-tetrahydro-5H-tetrahydro-5H-pyrimido[4,5-d]azepine]: the inhibitory constant (Ki) was under 1000 nM.
Same read-out and setting: as for `CCC1c2ccccc2CCN1CC(=O)N1CCN(C(C)C)CC1` (stereo not shown) [Compound 56, 1-ethyl-2-[2-(4-isopropylpiperazin-1-yl)-2-oxoethyl]-1,2,3,4-tetrahydroisoquinoline], the figure is under 1000 nM.

Staying with this test, now noted: Table II "Ki", symbol *; assay of Example 7.
`CC(C)c1ccc(-c2ccc3c(c2)CCN(CC(=O)N2CCN(C4CCC4)CC2)C3)nc1` [Compound 647, 2-[2-(4-cyclobutylpiperazin-1-yl)-2-oxoethyl]-6-(5-isopropylpyridin-2-yl)-1,2,3,4-tetrahydroisoquinoline]: the Ki is under 1000 nM.
Take `CN(C)c1ccc(-c2ccc3c(c2)CCN(CC(=O)N2CCN(C4CCC4)CC2)C3)cc1` [Compound 532, 4-{2-[2-(4-cyclobutylpiperazin-1-yl)-2-oxoethyl]-1,2,3,4-tetrahydroisoquinolin-6-yl}-N,N-dimethylaniline]: the Ki was under 1000 nM.
As for `C[C@H]1CN(C(=O)CN2CCc3cc(-c4cncnc4)ccc3C2)CCN1C1CCCC1` [Compound 610, 2-{2-[(3S)-4-cyclopentyl-3-methylpiperazin-1-yl]-2-oxoethyl}-6-pyrimidin-5-yl-1,2,3,4-tetrahydroisoquinoline], the inhibitory constant (Ki) was under 1000 nM.
The same measure, in the same setting: as for `O=C(CN1CCc2cc(-c3nccc4ccccc34)ccc2C1)N1CCN(C2CCC2)CC1` [Compound 637, 2′-[2-(4-cyclobutylpiperazin-1-yl)-2-oxoethyl]-1′,2′,3′,4′-tetrahydro-1,6′-biisoquinoline], the figure is under 1000 nM; as for `O=C(CN1CCc2nc(NC3CCC3)ccc2C1)N1CCN(C2CCC2)CC1` [Compound 654, N-cyclobutyl-6-[2-(4-cyclobutylpiperazin-1-yl)-2-oxoethyl]-5,6,7,8-tetrahydro-1,6-naphthyridin-2-amine], under 1000 nM.
Take `C[C@H]1CN(C(=O)CN2CCc3cc(-c4cncnc4)ccc3C2)CCN1C1CCCCC1` [Compound 616, 2-{2-[(3S)-4-cyclohexyl-3-methylpiperazin-1-yl]-2-oxoethyl}-6-pyrimidin-5-yl-1,2,3,4-tetrahydroisoquinoline]: the Ki is under 1000 nM.

Still in this test, the particulars now being: Table II; "*" = Ki in assay of Example 7 less than 1 micromolar.
`O=C(CN1CCc2c(cnn2-c2cncnc2)C1)N1CCN(C2CCC2)CC1` [Compound 251, 5-[2-(4-cyclobutylpiperazin-1-yl)-2-oxoethyl]-1-pyrimidin-5-yl-4,5,6,7-tetrahydro-1H-pyrazolo[4,3-c]pyridine]: the Ki was under 1000 nM.
On to `CC(=O)c1ccc(-n2cc3c(n2)CCN(CC(=O)N2CCN(C4CCC4)CC2)C3)nc1` [Compound 96, 1-(6-{5-[2-(4-cyclobutylpiperazin-1-yl)-2-oxoethyl]-4,5,6,7-tetrahydro-2H-pyrazolo[4,3-c]pyridin-2-yl}pyridin-3-yl)ethanone], for which the Ki is under 1000 nM.
For the compound `COCCN(C)c1ccc2c(n1)CCN(CC(=O)N1CCN3C(C)CCC[C@H]3C1)C2` (stereo in doubt) [Compound 181, N-(2-methoxyethyl)-N-methyl-6-[2-(6-methyloctahydro-2H-pyrido[1,2-a]pyrazin-2-yl)-2-oxoethyl]-5,6,7,8-tetrahydro-1,6-naphthyridin-2-amine], the Ki is under 1000 nM.
Consider `Cc1c2c(nn1-c1ccc(Br)cn1)CCN(CC(=O)N1CCN(C3CCC3)CC1)C2` [Compound 273, 2-(5-bromopyridin-2-yl)-5-[2-(4-cyclobutylpiperazin-1-yl)-2-oxoethyl]-3-methyl-4,5,6,7-tetrahydro-2H-pyrazolo[4,3-c]pyridine], for which the Ki is under 1000 nM.
For `O=C(CN1CCc2cc(-n3cccn3)ccc2C1)N1CCN(C2CCC2)CC1` [Compound 122, 2-[2-(4-cyclobutylpiperazin-1-yl)-2-oxoethyl]-6-(1H-pyrazol-1-yl)-1,2,3,4-tetrahydroisoquinoline], the Ki is under 1000 nM.
For the compound `O=C(CN1CCc2cc(N3CCOC3=O)ccc2C1)N1CCN(C2CCC2)CC1` [Compound 210, 3-{2-[2-(4-cyclobutylpiperazin-1-yl)-2-oxoethyl]-1,2,3,4-tetrahydroisoquinolin-6-yl}-1,3-oxazolidin-2-one], the Ki was under 1000 nM.
On to `N#Cc1nc2c(s1)CN(CC(=O)N1CCN(C3CCC3)CC1)CC2` [Compound 102, 5-[2-(4-cyclobutylpiperazin-1-yl)-2-oxoethyl]-4,5,6,7-tetrahydro[1,3]thiazolo [5,4-c]pyridine-2-carbonitrile], for which the Ki was under 1000 nM.
Turning to `O=C(CN1CCc2nc(N3CCOCC3)ncc2C1)N1CCN(C2CCCC2)CC1` [Compound 140, 6-[2-(4-cyclopentylpiperazin-1-yl)-2-oxoethyl]-2-morpholin-4-yl-5,6,7,8-tetrahydropyrido[4,3-d]pyrimidine], the inhibition constant (Ki) is under 1000 nM.
Still for that read-out and setting: as for `Cc1ccc(-c2ccc3c(c2)CCN(CC(=O)N2CCN(C4CCCC4C)CC2)C3)nn1` (stereo not shown) [Compound 190, 2-{2-[4-(2-methylcyclopentyl)piperazin-1-yl]-2-oxoethyl}-6-(6-methylpyridazin-3-yl)-1,2,3,4-tetrahydroisoquinoline], the figure is under 1000 nM; as for `O=C(CN1CCc2cc(-n3cccnc3=O)ccc2C1)N1CCN(C2CCC2)CC1` [Compound 213, 1-{2-[2-(4-cyclobutylpiperazin-1-yl)-2-oxoethyl]-1,2,3,4-tetrahydroisoquinolin-6-yl}pyrimidin-2(1H)-one], under 1000 nM.
As to `CC1CCC[C@H]2CN(C(=O)CN3CCc4cc(Br)ccc4C3)CCN12` (stereo in doubt) [Compound 146, 2-[(6-bromo-3,4-dihydroisoquinolin-2(1H)-yl)acetyl]-6-methyloctahydro-2H-pyrido[1,2-a]pyrazine], the inhibition constant (Ki) was under 1000 nM.

Still in this test, the particulars now being: assay of Example 7; "*" in Ki of Table II.
With `CSc1cccc(-c2nc3c(s2)CN(CC(=O)N2CCN(C4CCC4)CC2)CC3)c1` [Compound 320, 5-[2-(4-cyclobutylpiperazin-1-yl)-2-oxoethyl]-2-[3-(methylthio)phenyl]-4,5,6,7-tetrahydro[1,3]thiazolo [5,4-c]pyridine], the Ki is under 1000 nM.
Same read-out and setting: as for `COc1ccc(-c2nc3c(s2)CN(CC(=O)N2CCN(C4CCC4)CC2)CC3)cc1F` [Compound 322, 5-[2-(4-cyclobutylpiperazin-1-yl)-2-oxoethyl]-2-(3-fluoro-4-methoxyphenyl)-4,5,6,7-tetrahydro[1,3]thiazolo [5,4-c]pyridine], the figure is under 1000 nM; as for `O=C(CN1CCc2nc(-c3cccc(Cl)c3Cl)sc2C1)N1CCN(C2CCC2)CC1` [Compound 358, 5-[2-(4-cyclobutylpiperazin-1-yl)-2-oxoethyl]-2-(2,3-dichlorophenyl)-4,5,6,7-tetrahydro[1,3]thiazolo [5,4-c]pyridine], under 1000 nM; as for `O=C(CN1CCc2nc(-c3cccc(Cl)c3)sc2C1)N1CCN(C2CCC2)CC1` [Compound 295, 2-(3-chlorophenyl)-5-[2-(4-cyclobutylpiperazin-1-yl)-2-oxoethyl]-4,5,6,7-tetrahydro[1,3]thiazolo [5,4-c]pyridine], under 1000 nM.
On to `O=C(CN1CCc2nc(-c3cccc(F)c3F)sc2C1)N1CCN(C2CCC2)CC1` [Compound 356, 5-[2-(4-cyclobutylpiperazin-1-yl)-2-oxoethyl]-2-(2,3-difluorophenyl)-4,5,6,7-tetrahydro[1,3]thiazolo [5,4-c]pyridine], for which the Ki was under 1000 nM.
As to `O=C(CN1CCc2nc(C(F)(F)F)ncc2C1)N1CCN(C2CCC2)CC1` [Compound 292, 6-[2-(4-cyclobutylpiperazin-1-yl)-2-oxoethyl]-2-(trifluoromethyl)-5,6,7,8-tetrahydropyrido[4,3-d]pyrimidine], the Ki is under 1000 nM.
